“And” between values parts separate entries of the source, which are not always exact repeats. Identical values can stand only once. Like-named read-outs stand apart in the source and are kept apart here.
Assays:
[1] = 16-membered ring
[2] = system: OPM-2 human multiple myeloma cell line; experiment: Cell Viability Assay (OPM-2 10 FBS); format: cell-based; details: OPM-2 cells, CellTiter-Glo
How it was run: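 ATP-based luminescence (CellTiter-Glo) measured after a 16 h compound treatment of OPM-2 cells seeded at 3000 cells/well in 10% FBS medium. IC50 values derived by 4-parameter logistic fitting of serial dilutions.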

[3] = biological target: T1, Mcl-1/Bim interaction, recombinant human Mcl-1 (171-327) (Homo sapiens, UniProt Q07820); experiment: Cell free Mcl-1: Bim Affinity Assay (Mcl-1 HTRF); format: binding
T1 construct: made in house
T1 sequence (Q07820 171-327): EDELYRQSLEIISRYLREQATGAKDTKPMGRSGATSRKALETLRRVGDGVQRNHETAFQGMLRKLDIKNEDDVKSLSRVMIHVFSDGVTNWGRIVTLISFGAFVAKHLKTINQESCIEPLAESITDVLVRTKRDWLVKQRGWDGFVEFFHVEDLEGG
How it was run: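 TR-FRET competition assay with biotinylated human Bim peptide (residues 51-76); reaction plates incubated overnight before reading. IC50 values came from duplicate data fitted to a four-parameter sigmoidal competition curve.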

[4] = Homo sapiens, OPM-2, 16 h, 16 h incubation
[5] = TR-FRET, 0.1 nM Mcl-1 (171-327), 0.05 nM biotin-Bim (51-76)

Compound: C=CC[C@@H](O)[C@H](C)S(=O)(=O)NC(=O)c1ccc2c(c1)N(C[C@@H]1CC[C@H]1[C@@H](O)/C=C/CCC)C[C@@]1(CCCc3cc(Cl)ccc31)CO2
- ring closure, isolated yield ([1]; the molecule shown is the open-chain precursor, rcm bond, Hoveyda-Grubbs II (50 mol%), AcOH, 8.6 mM, 60.0 °C): 24.5%

Compound: CC(C)(C)[Si](C)(C)OC[C@H]1CC=CC[C@H](O)[C@@H]2CC[C@H]2CN2C[C@@]3(CCCc4cc(Cl)ccc43)COc3ccc(cc32)C(=O)NS1(=O)=O
- ring closure, isolated yield ([1]; from C=CC[C@H](CO[Si](C)(C)C(C)(C)C)S(=O)(=O)NC(=O)c1ccc2c(c1)N(C[C@@H]1CC[C@H]1[C@@H](O)CC=C)C[C@@]1(CCCc3cc(Cl)ccc31)CO2, rcm bond, Hoveyda-Grubbs II (20 mol%), toluene, 0.72 mM, 106.0 °C, 2.0 h): 85.9%

Compound: COCCN1[C@@H](C)CC=C[C@H](O)[C@@H]2CC[C@H]2CN2C[C@@]3(CCCc4cc(Cl)ccc43)COc3ccc(cc32)C(=O)NS1(=O)=O
- ring closure, isolated yield ([1]; from C=CC[C@H](C)N(CCOC)S(=O)(=O)NC(=O)c1ccc2c(c1)N(C[C@@H]1CC[C@H]1[C@@H](O)C=C)C[C@@]1(CCCc3cc(Cl)ccc31)CO2, rcm bond, Hoveyda-Grubbs II, 1,2-dichloroethane, 2.0 mM, 60.0 °C, 18.0 h): 37%

Compound: C[C@@H]1CC/C=C/[C@H](O)[C@]2(C)CC[C@H]2CN2C[C@@]3(CCCc4cc(Cl)ccc43)COc3ccc(cc32)C(=O)NS1(=O)=O
- ring closure, isolated yield ([1]; from C=CCC[C@@H](C)S(=O)(=O)NC(=O)c1ccc2c(c1)N(C[C@@H]1CC[C@@]1(C)[C@@H](O)C=C)C[C@@]1(CCCc3cc(Cl)ccc31)CO2, rcm bond, Hoveyda-Grubbs II, DCM, 2.0 mM, […]): 12.4%

Compound: C[C@@H]1[C@@H](C)C/C=C/[C@@H](O)[C@@H]2CC[C@H]2CN2C[C@@]3(CCCc4cc(Cl)ccc43)COc3ccc(cc32)C(=O)NS1(=O)=O
- ring closure, isolated yield ([1]; from C=CC[C@H](C)[C@@H](C)S(=O)(=O)NC(=O)c1ccc2c(c1)N(C[C@@H]1CC[C@H]1[C@H](O)/C=C/CCC)C[C@@]1(CCCc3cc(Cl)ccc31)CO2, rcm bond, Hoveyda-Grubbs II (10 mol%), DCE, 1.87 mM, 80.0 °C): 12.9%

Compound: C[C@@H]1[C@H]2/C=C/[C@H](O)[C@@H]3CC[C@H]3CN3C[C@@]4(CCCc5cc(Cl)ccc54)COc4ccc(cc43)C(=O)NS(=O)(=O)[C@H]1CCC2
- ring closure, isolated yield ([1]; from C[C@H]1[C@H](/C=C/[C@H](O)[C@@H]2CC[C@H]2CN2C[C@@]3(CCCc4cc(Cl)ccc43)COc3ccc(C(=O)O)cc32)CCC[C@H]1S(N)(=O)=O, amide bond, EDC/DMAP, DCM, 2.0 mM): 11.6%

Compound: C[C@H]1CC=C[C@H](O)[C@@H]2CC[C@H]2CN2C[C@@]3(CCCc4cc(Cl)ccc43)COc3ccc(cc32)C(=O)NS(=O)(=O)N1CC1CC1
- ring closure, isolated yield ([1]; from C=CC[C@H](C)N(CC1CC1)S(=O)(=O)NC(=O)c1ccc2c(c1)N(C[C@@H]1CC[C@H]1[C@@H](O)C=C)C[C@@]1(CCCc3cc(Cl)ccc31)CO2, rcm bond, Hoveyda-Grubbs II, 1,2-dichloroethane, 1.5 mM, 50.0 °C, 24.0 h): 45%

Compound: C[C@]12CC[C@@H]1CN1C[C@@]3(CCCc4cc(Cl)ccc43)COc3ccc(cc31)C(=O)NS(=O)(=O)CC/C=C/C[C@@H]2O
- ring closure, isolated yield ([1]; from C=CCCS(=O)(=O)NC(=O)c1ccc2c(c1)N(C[C@@H]1CC[C@@]1(C)[C@@H](O)CC=C)C[C@@]1(CCCc3cc(Cl)ccc31)CO2, rcm bond, 1.5 h): 4.76%

Compound: C[C@]12CC[C@H]1CN1C[C@@]3(CCCc4cc(Cl)ccc43)COc3ccc(cc31)C(=O)NS(=O)(=O)CC/C=C\C[C@@H]2O
- ring closure, isolated yield ([1]; from C=CCCS(=O)(=O)NC(=O)c1ccc2c(c1)N(C[C@H]1CC[C@@]1(C)[C@@H](O)CC=C)C[C@@]1(CCCc3cc(Cl)ccc31)CO2, rcm bond, Hoveyda-Grubbs II, toluene, 1.0 mM, 1.5 h): 83%

Compound: O=C1NS(=O)(=O)C2CC(/C=C/[C@H](O)[C@@H]3CC[C@H]3CN3C[C@@]4(CCCc5cc(Cl)ccc54)COc4ccc1cc43)C2
- ring closure, isolated yield ([1]; from NS(=O)(=O)C1CC(/C=C/[C@H](O)[C@@H]2CC[C@H]2CN2C[C@@]3(CCCc4cc(Cl)ccc43)COc3ccc(C(=O)O)cc32)C1, amide bond, EDC/DMAP, DCM, 2.0 mM): 3.3% and 22%

Compound: O=C1NS(=O)(=O)NCCC=C[C@H](O)[C@@H]2CC[C@H]2CN2C[C@@]3(CCCc4cc(Cl)ccc43)COc3ccc1cc32
- ring closure, isolated yield ([1]; from C=CCCNS(=O)(=O)NC(=O)c1ccc2c(c1)N(C[C@@H]1CC[C@H]1[C@@H](O)C=C)C[C@@]1(CCCc3cc(Cl)ccc31)CO2, rcm bond, Hoveyda-Grubbs II, 1,1-dichloroethane, 1.5 mM, 50.0 °C, 24.0 h): 61%

Compound: O=C1NS(=O)(=O)[C@@H]2C[C@H]2C/C=C/[C@H](O)[C@@H]2CC[C@H]2CN2C[C@@]3(CCCc4cc(Cl)ccc43)COc3ccc1cc32
- ring closure, isolated yield ([1]; from C=CCC1C[C@H]1S(=O)(=O)NC(=O)c1ccc2c(c1)N(C[C@@H]1CC[C@H]1[C@@H](O)C=C)C[C@@]1(CCCc3cc(Cl)ccc31)CO2, rcm bond, Hoveyda-Grubbs II, AcOH, 0.915 mM, 36.0 h): 55%

Compound: O=C1NS(=O)(=O)C[C@H]2C[C@H]2/C=C/[C@H](O)[C@@H]2CC[C@H]2CN2C[C@@]3(CCCc4cc(Cl)ccc43)COc3ccc1cc32 (mixture of isomers)
- ring closure, isolated yield ([1]; from C=C[C@H](O)[C@@H]1CC[C@H]1CN1C[C@@]2(CCCc3cc(Cl)ccc32)COc2ccc(C(=O)NS(=O)(=O)C[C@@H]3C[C@@H]3/C=C/C)cc21, rcm bond, Hoveyda-Grubbs II, DCE, 1.99 mM, 60.0 °C, 6.0 h): 29%

Compound: CN1CC=CCS(=O)(=O)NC(=O)c2ccc3c(c2)N(C[C@@H]2CC[C@H]2C1=O)C[C@@]1(CCCc2cc(Cl)ccc21)CO3 (single isomer, unassigned)
- ring closure, isolated yield ([1]; from C=CCN(C)C(=O)[C@@H]1CC[C@H]1CN1C[C@@]2(CCCc3cc(Cl)ccc32)COc2ccc(C(=O)NS(=O)(=O)CC=C)cc21, rcm bond, Hoveyda-Grubbs II, toluene, 1.0 mM, 1.5 h): 48%

Compound: CNC(=O)C[C@@H]1/C=C/[C@@H]2CC[C@H]2CN2C[C@@]3(CCCc4cc(Cl)ccc43)COc3ccc(cc32)C(=O)NS(=O)(=O)[C@H](C)[C@@H](C)C1 [Example 1073, 2-((1S,3′R,6′S,7′E,9′R,11′S,12′R)-6-chloro-11′,12′-dimethyl-13′,13′-dioxido-15′-oxo-3,4-dihydro-2H-spiro[naphthalene-1,22′-[20]oxa[13]thia[1,14]diazatetracyclo[14.7.2.0^3,6.0^19,24]pentacosa [7,16,18,24]tetraen]-9′-yl)-N-methylacetamide]
- IC50 [2, 4]: 1.11 µM
- IC50 [3, 5]: 0.617 nM

Compound: C[C@@H]1[C@@H](C)C[C@H](CC(=O)N2CC(O)C2)/C=C/[C@@H]2CC[C@H]2CN2C[C@@]3(CCCc4cc(Cl)ccc43)COc3ccc(cc32)C(=O)NS1(=O)=O [Example 1074, (1S,3′R,6′S,7′E,9′R,11′S,12′R)-6-chloro-9′-(2-(3-hydroxy-1-azetidinyl)-2-oxoethyl)-11′,12′-dimethyl-3,4-dihydro-2H,15′H-spiro[naphthalene-1,22′-[20]oxa[13]thia[1,14]diazatetracyclo[14.7.2.0^3,6.0^19,24]pentacosa [7,16,18,24]tetraen]-15′-one 13′,13′-dioxide]
- IC50 [2, 4]: 3.85 µM
- IC50 [3, 5]: 0.988 nM

Compound: C[C@@H]1[C@@H](C)C[C@H](CC#N)/C=C/[C@@H]2CC[C@H]2CN2C[C@@]3(CCCc4cc(Cl)ccc43)COc3ccc(cc32)C(=O)NS1(=O)=O [Example 1075, ((1S,3′R,6′S,7′E,9′R,11′S,12′R)-6-chloro-11′,12′-dimethyl-13′,13′-dioxido-15′-oxo-3,4-dihydro-2H-spiro[naphthalene-1,22′-[20]oxa[13]thia[1,14]diazatetracyclo[14.7.2.0^3,6.0^19,24]pentacosa [7,16,18,24]tetraen]-9′-yl)acetonitrile]
- IC50 [2, 4]: 2.15 µM
- IC50 [3, 5]: 6.15 nM

Compound: O=C1NS(=O)(=O)C[C@@H](CO)C/C=C/[C@H](O)[C@@H]2CC[C@H]2CN2C[C@@]3(CCCc4cc(Cl)ccc43)COc3ccc1cc32 [Example 1086, (1S,3′R,6′R,7′S,8′E,11′R)-6-chloro-7′-hydroxy-11′-(hydroxymethyl)-3,4-dihydro-2H,15′H-spiro [naphthalene-1,22′-[20]oxa[13]thia[1,14]diazatetracyclo[14.7.2.0^3,6.0^19,24]pentacosa [8,16,18,24]tetraen]-15′-one 13′,13′-dioxide]
- IC50 [2, 4]: 8.65 µM
- IC50 [3, 5]: 0.421 nM

Compound: COC[C@H]1C/C=C/[C@H](O)[C@@H]2CC[C@H]2CN2C[C@@]3(CCCc4cc(Cl)ccc43)COc3ccc(cc32)C(=O)NS(=O)(=O)C1 [Example 1087, (1S,3′R,6′R,7′S,8′E,11′R)-6-chloro-7′-hydroxy-11′-(methoxymethyl)-3,4-dihydro-2H,15′H-spiro [naphthalene-1,22′-[20]oxa[13]thia[1,14]diazatetracyclo[14.7.2.0^3,6.0^19,24]pentacosa [8,16,18,24]tetraen]-15′-one 13′,13′-dioxide]
- IC50 [2, 4]: 0.693 µM
- IC50 [3, 5]: 0.493 nM

Compound: (1S,3′R,6′R,7′S,11′S,13′R)-6-chloro-13′-methyl-3,4-dihydro-2H,17′H-spiro[naphthalene-1,24′-[8,12,22]trioxa[15]thia[1,16]diazapentacyclo[16.7.2.1^7,11.0^36.0^21,26]octacosa[18,20,26]trien]-17′-one 15′,15′-dioxide [Example 920]
- IC50 ([2]; 16 h): 4.35 µM
- IC50 ([3]; cell free Mcl-1:Bim TR-FRET, recombinant human Mcl-1 (171-327)): 1.86 nM

Compound: (1S,3′R,6′R,9′R)-6-chloro-9′-methyl-3,4-dihydro-2H,15′H-spiro[naphthalene-1,22′-[20]oxa[13]thia[1,14]diazatetracyclo[14.7.2.0^3,6.0^19,24]pentacosa [16,18,24]trien]-15′-one 13′,13′-dioxide and (1S,3′R,6′R,9′S)-6-chloro-9′-methyl-3,4-dihydro-2H,15′H-spiro[naphthalene-[20]oxa[13]thia[1,14]diazatetracyclo[14.7.2.0^3,6.0^19,24]pentacosa [16,18,24]trien]-15′-one 13′,13′-dioxide [Example 276]
- IC50 ([2]; 16 h): 6.41 µM
- IC50 [3, 5]: 13.2 nM

Source: US12091425B2 (AMGEN INC., priority 2016, dated 2024)
